Assay results reported in ChEMBL document CHEMBL3039007, “Structure-based identification of OATP1B1/3 inhibitors” (Mol Pharmacol, 2013).

What was measured:
[1] = molecular target: T1, Solute carrier organic anion transporter family member 1B1 (Homo sapiens, UniProt Q9Y6L6); details: chinese hamster, cho, 10 µM
T1 sequence (Q9Y6L6 whole entry): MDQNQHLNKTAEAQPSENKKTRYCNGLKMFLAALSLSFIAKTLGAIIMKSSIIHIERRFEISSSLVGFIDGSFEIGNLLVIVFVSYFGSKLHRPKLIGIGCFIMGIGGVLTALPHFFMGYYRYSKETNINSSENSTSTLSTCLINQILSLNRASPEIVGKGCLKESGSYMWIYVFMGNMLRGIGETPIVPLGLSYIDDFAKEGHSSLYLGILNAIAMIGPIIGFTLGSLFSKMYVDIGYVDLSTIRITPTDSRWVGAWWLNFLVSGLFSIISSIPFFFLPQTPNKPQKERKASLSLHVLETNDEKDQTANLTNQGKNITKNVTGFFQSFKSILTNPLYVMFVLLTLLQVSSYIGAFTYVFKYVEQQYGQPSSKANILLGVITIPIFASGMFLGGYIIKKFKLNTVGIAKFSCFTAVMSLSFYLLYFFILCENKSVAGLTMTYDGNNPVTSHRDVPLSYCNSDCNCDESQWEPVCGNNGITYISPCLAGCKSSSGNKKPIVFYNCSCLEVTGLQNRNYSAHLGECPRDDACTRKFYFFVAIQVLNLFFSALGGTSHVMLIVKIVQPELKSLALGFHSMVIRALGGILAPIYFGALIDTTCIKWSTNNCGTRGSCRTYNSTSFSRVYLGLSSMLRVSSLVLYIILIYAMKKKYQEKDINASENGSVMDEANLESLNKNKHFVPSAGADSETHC

[2] = molecular target: T2, Solute carrier organic anion transporter family member 1B3 (Homo sapiens, UniProt Q9NPD5); details: chinese hamster, cho, 10 µM
T2 sequence (Q9NPD5 whole entry): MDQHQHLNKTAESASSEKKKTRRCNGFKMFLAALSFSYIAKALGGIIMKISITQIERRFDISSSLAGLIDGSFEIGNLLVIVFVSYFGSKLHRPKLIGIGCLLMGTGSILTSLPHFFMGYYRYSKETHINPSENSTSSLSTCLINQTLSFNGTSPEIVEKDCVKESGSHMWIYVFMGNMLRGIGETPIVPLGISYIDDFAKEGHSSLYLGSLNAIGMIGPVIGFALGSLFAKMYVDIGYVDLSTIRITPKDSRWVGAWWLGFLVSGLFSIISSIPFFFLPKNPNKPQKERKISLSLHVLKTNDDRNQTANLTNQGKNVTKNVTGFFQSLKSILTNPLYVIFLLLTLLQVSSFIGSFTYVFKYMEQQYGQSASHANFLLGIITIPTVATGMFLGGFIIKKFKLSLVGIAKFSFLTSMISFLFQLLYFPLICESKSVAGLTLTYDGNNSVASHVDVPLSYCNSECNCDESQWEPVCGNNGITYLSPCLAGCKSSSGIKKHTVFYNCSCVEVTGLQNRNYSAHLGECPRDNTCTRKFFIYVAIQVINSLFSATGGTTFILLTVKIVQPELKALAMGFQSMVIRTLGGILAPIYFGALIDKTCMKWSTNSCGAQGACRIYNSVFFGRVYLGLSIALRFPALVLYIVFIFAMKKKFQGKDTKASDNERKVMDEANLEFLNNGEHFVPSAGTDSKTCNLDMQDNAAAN

Row | Compound | residual activity [1] [%] | residual activity [2] [%]
1 | CC1(C)Oc2ccc3ccc(=O)oc3c2CC1O (stereo unspecified) [LOMATIN] | 92.91 | 142.3
2 | COc1ccc(-c2cc(=O)c3c(O)c(OC)c(O[C@@H]4O[C@H](CO[C@@H]5O[C@@H](C)[C@H](O)[C@@H](O)[C@H]5O)[C@@H](O)[C@H](O)[C@H]4O)cc3o2)cc1 [PECTOLINARIN] | 39.1 | 155.8
3 | CCOC(=O)c1c(C)cc(O)c(C=O)c1O [ETHYL HEMATOMMATE] | 61.89 | 77.96
4 | C=CCSCC1Nc2cc(Cl)c(S(N)(=O)=O)cc2S(=O)(=O)N1 (stereo unspecified) [ALTHIAZIDE] | 107.1 | 95.11
5 | COc1ccc2c(c1OC)C(=O)O[C@H]2[C@H]1c2cc3c(cc2CCN1C)OCO3 [1R,9S-HYDRASTINE] | 94.94 | 84.49
6 | CN1C(=O)CCS(=O)(=O)C1c1ccc(Cl)cc1 (stereo unspecified) [CHLORMEZANONE] | 97.47 | 92
7 | Cc1cc(/C=C/c2ccc3cc(N(C)C)ccc3[n+]2C)c(C)n1-c1ccccc1.Cc1cc(/C=C/c2ccc3cc(N(C)C)ccc3[n+]2C)c(C)n1-c1ccccc1.O=C([O-])c1cc2ccccc2c(Cc2c(O)c(C(=O)[O-])cc3ccccc23)c1O [PYRVINIUM PAMOATE] | 42.61 | 32.66
8 | CN1CCCC(n2nc(Cc3ccc(Cl)cc3)c3ccccc3c2=O)CC1.Cl (stereo unspecified) [AZELASTINE HYDROCHLORIDE] | 43.45 | 134.9
9 | COc1ccc2c(c1)OC/C(=C/c1ccc(O)c(O)c1)C2=O [SAPPANONE A 7-METHYL ETHER] | 159.5 | 107.8
10 | c1ccc2[nH]c(-c3cscn3)nc2c1 [THIABENDAZOLE] | 76.75 | 94.36
11 | C[C@@H](CO)NC(=O)[C@@H]1C=C2c3cccc4[nH]cc(c34)C[C@H]2N(C)C1.O=C(O)/C=C\C(=O)O [ERGONOVINE MALEATE] | 69.31 | 84.31
12 | CC(C)[C@]12O[C@H]1[C@@H]1O[C@@]13[C@@]1(C)CCC4=C(COC4=O)[C@@H]1C[C@@H]1O[C@@]13C2=O [TRIPTONIDE] | 74.69 | 84.23
13 | Cl.c1ccc([C@H]2CN3CCSC3=N2)cc1 [LEVAMISOLE HYDROCHLORIDE] | 121.8 | 102.9
14 | CCOc1ccc(C(=O)c2ccc(O)c(O)c2O)cc1 [2,3,4-TRIHYDROXY-4'-ETHOXYBENZOPHENONE] | 134.1 | 99.48
15 | CN[C@@H]1[C@@H](O)[C@@H](O[C@@H]2[C@@H](O)[C@H](O[C@H]3O[C@H]([C@@H](C)O)[C@@H](O)[C@H](O)[C@H]3N)[C@@H](N)C[C@H]2N)OC[C@]1(C)O [GENETICIN] | 83.57 | 105.6
16 | Oc1cc(O)c2c(c1)O[C@H](c1ccc(O)c(O)c1)[C@H](O)C2 [(-)-EPICATECHIN] | 80.37 | 77.92
17 | Cl.NCCCCC(=O)O [5-AMINOPENTANOIC ACID HYDROCHLORIDE] | 59.53 | 62.53
18 | Nc1nc(=O)c2[nH]c(=O)cnc2[nH]1 [XANTHOPTERIN] | 104.4 | 104.7
19 | COc1cccc(/C=C/C(=O)O)c1C(C)C [2-ISOPROPYL-3-METHOXYCINNAMIC ACID] | 137.6 | 87.92
20 | NC[C@@H]1CC[C@@H](N)[C@@H](O[C@H]2[C@H](O)[C@@H](O[C@H]3O[C@H](CO)[C@@H](O)[C@H](N)[C@H]3O)[C@H](N)C[C@@H]2N)O1 [DIBEKACIN] | 88.15 | 96.4
21 | CC(C)C[C@H](CN)CC(=O)O [PREGABALIN] | 120.6 | 101.4
22 | O=c1c(-c2ccccc2)coc2cc(O)cc(O)c12 [5,7-DIHYDROXYISOFLAVONE] | 54.1 | 75.57

Row | Compound | residual activity [1] [%] | residual activity [2] [%]
23 | CCN1C[C@]2(COC)[C@H](O)C[C@H](OC)[C@@]34[C@@H]5C[C@@]6(O)[C@H](OC(=O)c7ccccc7)[C@@H]5[C@@](OC(C)=O)([C@@H]([C@H](OC)[C@H]23)[C@@H]14)[C@@H](O)[C@@H]6OC [ACONITINE] | 65.77 | 85.31
24 | C[C@]12CCC(=O)C=C1C=C[C@@H]1[C@@H]2CC[C@@]2(C)[C@H]1CC[C@@]21CCC(=O)O1 [CANRENONE] | 32.01 | 78.65
25 | C[C@@H]1CC[C@H]2[C@](C)(CO)[C@@H](O)CC[C@]2(C)[C@@]12CC[C@@](CO)(CCO)O2 [LAGOCHILINE] | 99.12 | 95.67
26 | CC(=O)O[C@H]1C[C@@H](OC(C)=O)C(C)(C)[C@@H]2C[C@@H](OC(C)=O)[C@@]3(C)C4=CC(=O)O[C@@H](c5ccoc5)[C@]4(C)CC[C@@H]3[C@@]12C | 107.2 | 104.2
27 | COc1ccc(-c2c(O)c3c(OC)c4c(cc3oc2=O)OC(C)(C)C=C4)cc1 [ROBUSTIC ACID] | 96.44 | 74.37
28 | NC(=O)c1ccc[n+]([C@@H]2O[C@H](COP(=O)([O-])OP(=O)(O)OC[C@H]3O[C@@H](n4cnc5c(N)ncnc54)[C@H](O)[C@@H]3O)[C@@H](O)[C@H]2O)c1 [NADIDE] | 99.44 | 115.4
29 | CCOC(N)=O | 109.1 | 101.6
30 | CCOC(=O)OC(C)OC(=O)[C@@H]1N2C(=O)[C@@H](NC(=O)[C@H](N)c3ccccc3)[C@H]2SC1(C)C.Cl (stereo partly specified) [BACAMPICILLIN HYDROCHLORIDE] | 46.45 | 80.61
31 | COc1c(-c2coc3cc4c(cc3c2=O)CC(OC(C)=O)C(C)(C)O4)ccc2c1C=CC(C)(C)O2 (stereo unspecified) [MUNDULONE ACETATE] | 71.78 | 87.47
32 | COC(=O)C1=CO[C@@H](O[C@@H]2O[C@H](CO)[C@@H](O)[C@H](O)[C@H]2O)[C@@H]2[C@@H](C)[C@@H](O)C[C@H]12 [LOGANIN] | 98.87 | 87.42
33 | CC(C)(C)NC[C@H](O)COc1nsnc1N1CCOCC1.O=C(O)/C=C\C(=O)O [TIMOLOL MALEATE] | 113.3 | 102.2
34 | NC(=O)c1cccc(N)c1 [3-AMINOBENZAMIDE] | 106.1 | 110.7
35 | CC1(C)C(=O)C=C[C@]2(C)[C@H]3CC[C@@]4(C)[C@H](c5ccoc5)OC(=O)[C@H]5O[C@]54[C@]3(C)[C@H](O)C[C@@H]12 [DEACETYLGEDUNIN] | 74.35 | 60.92
36 | O=C(O)c1cc(-c2ccc(F)cc2F)ccc1O [DIFLUNISAL] | 201 | 87.47
37 | CC(C)=CCc1c2c(c(O)c3c(=O)c(O)c(-c4ccccc4)oc13)C=CC(C)(C)O2 [SERICETIN] | 89.94 | 98.26
38 | C#C[C@]1(O)CC[C@H]2[C@@H]3CCC4=C(CCC(=O)C4)[C@H]3CC[C@@]21C [NORETHYNODREL] | 64.52 | 124.5
39 | Cc1ccsc1/C=C/C1=NCCCN1C.O=C(O)CC(O)(CC(=O)O)C(=O)O [MORANTEL CITRATE] | 115.3 | 103.6
40 | COC(=O)COc1ccc(Cl)cc1Cl [2,4-DICHLOROPHENOXYACETIC ACID, METHYL ESTER] | 116.2 | 110
41 | COc1ccc([C@H]2COc3c(ccc(O)c3OC)C2)c(OC)c1O [DUARTIN (-)] | 88.51 | 86.99
42 | CC(=O)O[C@]1(C(C)=O)CC[C@H]2[C@@H]3C[C@H](C)C4=CC(=O)CC[C@]4(C)[C@H]3CC[C@@]21C [MEDROXYPROGESTERONE ACETATE] | 105.9 | 104.4
43 | O=C1c2ccccc2C(=O)C1c1ccccc1 [PHENINDIONE] | 89.42 | 128.9
